# Measured values reported in patent US5763442A, “Anti-parasitic activity” (Universiteit Van Pretoria, priority 1995, dated 1998).
# Tested on: Plasmodium falciparum (RB-1)
# Assay: Microscopic parasitaemia, chloroquine resistant strain RB-1 (reversal of chloroquine resistance)
# Type: cell-based
# Conditions: for Percentage red blood cells infected with P. falciparum (RB-1): 24 h
# Method: The activity of riminophenazines to reverse chloroquine resistance in Plasmodium falciparum was tested in the following manner:
# A preliminary series of experiments were carried out using two laboratory strains of P. falciparum (RB-1 and Fab-9). These strains were obtained from the Medical Research Council, Durban, where they were characterised as being either mildly resistant or sensitive to chloroquine. The isolates were maintained in suspension culture in known manner (as described by Freese J A, Markus M B and Golenser J, 1991; Bulletin of the World Health Organization 69: 707-712).
# Infected erythrocytes were diluted with human O-positive red blood cells to a parasitaemia of 0.2-0.9% and suspended to 3% in RPMI containing 44 mg/l hypoxanthine and 10% human type O serum. Aliquots (100 μl) of the suspension were dispensed into the wells of 96-well microtitre plates. To these suspensions 100 μl of the medium were added containing either chloroquine or B669 alone or in combination. The final drug concentrations were 31, 62, 125, 250 500 and 1000 nM for chloroquine and 0.125, 0.25, 0.5 and 1.0 μg/ml for B669. Relevant solvent controls were included. The plates were incubated for 24 hours at 38° C. in a desiccator gassed with 5% O2, 5% CO2 and 90% N2. Thin blood smears were prepared from each well, stained with Giemsa stain and the percentage of red blood cells infected by at least one parasite determined microscopically.
smiles,measurement,setting,value
"c1ccc(Nc2cc3nc4ccccc4n(-c4ccccc4)c-3cc2=NC2CCCCC2)cc1 [Compound B669, N,5-bis(phenyl)-3,5-dihydro-3-(cyclohexylimino)-2-phenazinamine]","increase of sensitivity to chloroquine, chloroquine resistant strain","125 nM chloroquine, 0.125 μg/ml B669",up to two fold
same,"increase of sensitivity to chloroquine, chloroquine resistant strain","500 nM chloroquine, 0.25 μg/ml B669",up to three fold
same,Percentage red blood cells infected with P. falciparum (RB-1),"B669 0.125 μg/ml + chloroquine 125 nM, *parasites morphologically abnormal",1.6%
same,Percentage red blood cells infected with P. falciparum (RB-1),B669 0.125 μg/ml + chloroquine 500 nM,1.3%
same,Percentage red blood cells infected with P. falciparum (RB-1),B669 0.125 μg/ml alone,3.6%
same,Percentage red blood cells infected with P. falciparum (RB-1),B669 0.25 μg/ml + chloroquine 31 nM,3.9%
same,Percentage red blood cells infected with P. falciparum (RB-1),"B669 0.25 μg/ml + chloroquine 62 nM, *parasites morphologically abnormal",2.8%
same,Percentage red blood cells infected with P. falciparum (RB-1),"B669 0.25 μg/ml + chloroquine 125 nM, *parasites morphologically abnormal",1.9%
same,Percentage red blood cells infected with P. falciparum (RB-1),"B669 0.25 μg/ml + chloroquine 500 nM, *parasites morphologically abnormal",0.9%
same,Percentage red blood cells infected with P. falciparum (RB-1),B669 0.25 μg/ml + chloroquine 1000 nM,0%
same,Percentage red blood cells infected with P. falciparum (RB-1),B669 0.25 μg/ml alone,4.0%
same,Percentage red blood cells infected with P. falciparum (RB-1),"B669 0.5 μg/ml + chloroquine 250 nM, *parasites morphologically abnormal",1.4%
same,Percentage red blood cells infected with P. falciparum (RB-1),B669 0.5 μg/ml + chloroquine 1000 nM,0.1%
same,Percentage red blood cells infected with P. falciparum (RB-1),B669 0.5 μg/ml alone,3.2%
same,Percentage red blood cells infected with P. falciparum (RB-1),"B669 1.0 μg/ml + chloroquine 31 nM, *parasites morphologically abnormal",2.6%
same,Percentage red blood cells infected with P. falciparum (RB-1),"B669 1.0 μg/ml + chloroquine 250 nM, *parasites morphologically abnormal",0.1%
same,Percentage red blood cells infected with P. falciparum (RB-1),B669 1.0 μg/ml + chloroquine 1000 nM,0%
same,Percentage red blood cells infected with P. falciparum (RB-1),"B669 1.0 μg/ml alone, *parasites morphologically abnormal",2.6%
same,direct effect on parasite morphology,B669 alone 1.0 μg/ml,morphological deterioration of the parasites was observed
same,percentage parasitaemia versus untreated control systems,B669 alone 1.0 μg/ml,did not differ from the untreated control systems
